In brackets after ≈: the same amount, converted by molar mass. Square brackets hold non-standard residues; d marks the D form. Ends that are not written are not given here. Peptide text beside a SMILES is read from it. * marks the point of attachment. ξ: configuration not given here. ξGly(octyl) = CCCCCCCCC(N)C(=O)O; Octanoyl = CCCCCCCC(=O)*; Propionyl = CCC(=O)*
How the values were obtained:
[1] = system: Escherichia coli, strain INV-α; assay: Determination of minimal inhibitory concentration (MIC); type: cell-based; conditions: LB medium, 37°C, 20 h, shaking, peptide 0.05–50 µM, absorbance 570 nm, triplicates
Experimental: (§1) A stock dilution series with ten points, ranging from 1 µM to 1 mM, was prepared in sterile PBS from freshly dissolved peptides. The dilution series was dispensed in triplicates in 96-deepwell microtiter plates (VWR Denmark, Herlev, Denmark), with 15 µl in each well. Multidispensing with electronic pipettes (Biohit, Tåstrup, Denmark) was used throughout. Lactococcus lactis, strain MG1363 (ATCC, LGC Standards AB, Boras, Sweden) and Escherichia coli, strain INV-α (Invitrogen, Nærum, Denmark) were grown in M9 (Sigma Aldrich, Brøndby, Denmark) and LB medium (Difco, BD Biosciences, Brøndby Denmark), respectively. A single colony was grown overnight at 30°C and 37°C for L.lactis and E.coli respectively. The next day, a fresh culture was started with a twenty-fold dilution of the cells and grown for exactly 60 min (optical density was approximately 0.4 at 570 nm). The cell culture was diluted (300 fold for L.lactis and 1000 fold for E.coli) before adding 150 µl to microtiter plates already containing 15 µl peptide solution and 135 µl fresh medium. […] Plates with L.lactis were sealed with lid and parafilm, and plates with E.coli were sealed with a gas-permeable tape (VWR Denmark, Herlev, Denmark). The plates were incubated at the respective temperatures for 20 hours with shaking (150 rpm). For each measurement, 100 µl of the cell culture was transferred to clear, flat-bottomed microtiter plates, and the absorbance at 570 nm was determined using a Victor3 plate reader (Perkin Elmer, Skovlunde, Denmark). The measurement was conducted in triplicates.

[2] = system: Lactococcus lactis, strain MG1363; assay: as above; type: cell-based; conditions: strain MG1363, M9 medium, 30°C, 20 h, shaking; peptide 0.05–50 µM; absorbance 570 nm; triplicates
Experimental: as §1

[3] = system: human red blood cells (RBCs); assay: Haemolysis assay; type: cell-based; conditions: for % haemolysis: human RBCs; for H5, concentration at which 5% haemolysis has been obtained: purified human erythrocytes, assay as in Etzerodt et al. [14]
Source text: All Fmoc (9H-fluoren-9-yl-methyloxycarbonyl) L-amino acids and HATU (1-[Bis(dimethylamino)methylene]-1H-1,2,3-triazolo[4,5-b]pyridinium 3-oxid hexafluorophosphate, N-[(Dimethylamino)-1H-1,2,3-triazolo-[4,5-b]pyridin-1-ylmethylene]-N-methylmethanaminium hexafluorophosphate N-oxide) were purchased from GLS China (GL Biochem, Shanghai, China). Fmoc-2-amino-decanoic acid was obtained from Watanabe Chemical Industries, Ltd (Hiroshima, Japan). Lys and Trp were side-chain-protected as tert-butoxycarbonyl, Asn was sidechain protected with trityl. Tentagel resin was purchased from NovaBiochem (Merck, Darmstadt, Germany). TFA (trifluoroacetic acid), TIS (triisopropylsilane), HEPES (N-(2-hydroxyethyl)piperazine-N-(2-ethanesulfonic acid)), 2,4,6-collidine and pyrene were purchased from Sigma-Aldrich (Brøndby, Denmark). Pyridine, sodium hydroxide pellets and sodium chloride was purchased from J.T. Baker Chemicals (Phillipsburg, NJ, USA). Filter supports and Hamilton extrusion syringes, POPG (1-palmitoyl-2-oleoyl-sn-glycero-3-[phospho-rac-(1-glycerol)] sodium salt), and POPC (1-palmitoyl-2-oleoyl-sn-glycero-3-phosphocholine) were purchased from Avanti Polar Lipids (Alabaster, AL). All compounds were used without further purification. Membrane filters for extrusion (100 nm pore size, polycarbonate) were purchased from Whatman (Maidstone, UK). Cuvettes (4×10 mm, quartz, Suprasil) were purchased from Hellma (Müllheim, Germany). Purified human erythrocytes for the haemolysis studies were provided by Bioneer (Hørsholm, Denmark), and were stored at 4°C for a maximum of three days before use.
The assay was conducted as described in Etzerodt et al..

[4] = Peptide partitioning by ITC; type: physicochemical; conditions: 37°C; for partition coefficient of insertion Kins/10^5: 10 mM POPC∶POPG (3∶1) LUVs into 20 µM peptide, pH 7.4, Gouy-Chapman-Stern fit, value is Kins divided by 10^5, triplicates; for effective partition coefficient Keff/10^8: derived from Kins, zeff and the surface potential of fully charged membrane (25 mol% negative charge), value is Keff divided by 10^8
Experimental: Lipid stock solutions of POPC and POPG were prepared in chloroform∶methanol (9∶1). Mixtures of POPC∶POPG (3∶1) were prepared and the organic solvent was evaporated under a gentle stream of nitrogen. The lipid films were kept in vacuum (P<0.1 Pa) overnight in order to remove the residual solvent. Buffer containing 10 mM HEPES and 100 mM sodium chloride (pH 7.4) was added to the lipid films, and they were hydrated for 60 min followed by extrusion through 100 nm using an Avanti mini-extruder. Dynamic Light Scattering (DLS, Brookhaven Instrument Corporation, ZetaPALS) was used for measuring the liposome size distribution. The effective lipid concentration was determined by inductively coupled plasma atomic emission spectroscopy (ICP-AES Vista AX, Varian).
The partitioning of AMPs onto lipid membranes was investigated by isothermal titration calorimetry (ITC, iTC200, Microcal, 204 µL cell volume). For the peptide analogues MPX, Ala1 and Ala14, 10 mM […] (3∶1) LUVs were injected (19×2 µL) into a 20 µM peptide solution at T = 37°C. The speed of the stirrer was 1000 rpms, and all titration were initiated with a 0.5 µL pre-injection. The heat-traces were integrated using custom made software, and the heat of partitioning was analysed using a partitioning isotherm based on Gouy-Chapman-Stern description of the electrostatic interaction of the peptide and membrane, [32]. The effective charge of the peptide (zeff), the partitioning coefficient of insertion (Kins), the molar enthalpy of partitioning ( [drawing 4] ), and the heat of dilution (qdil) were extracted as fitting parameters. The effective partitioning coefficient was derived as [drawing 5] where F is Faradays constant, [drawing 6] is the electrostatic potential evaluated at the interface of a fully charged membrane (25mol% negative charge before insertion of the first peptide), and R is the ideal gas constant. The instrument was electrically calibrated, and blank titration of LUVs into buffer was performed to ensure that heat of dilution could be modelled as a constant in the data analysis. Each titration was conducted in triplicates.

Row | Compound | MIC (E. coli) [1] | MIC (L. lactis) [2] | % haemolysis ([3]; 50 µM peptide) | H5, concentration at which 5% haemolysis has been obtained [3] | partition coefficient of insertion Kins/10^5 [4] | effective partition coefficient Keff/10^8 [4] | % haemolysis ([3]; 200 µM peptide)
1 | CCCCCCCCC(NC(=O)[C@H](C)NC(=O)[C@@H](NC(=O)CNC(=O)[C@H](CCCCN)NC(=O)[C@H](Cc1c[nH]c2ccccc12)NC(=O)[C@H](CC(N)=O)NC(=O)[C@@H](N)[C@@H](C)CC)[C@@H](C)CC)C(=O)N[C@@H](CCSC)C(=O)N[C@@H](C)C(=O)N[C@@H](CCCCN)C(=O)N[C@@H](CCCCN)C(=O)N[C@@H](CC(C)C)C(=O)N[C@@H](CC(C)C)C(N)=O (stereo partly shown) [Adec8] (H-INWKGIA[ξGly(octyl)]MAKKLL-NH2) | 4.2 ± 0.8 µM (≈ 6.95 µg/mL) | 4.2 ± 0.8 µM (≈ 6.95 µg/mL) | full haemolysis | 1 ± 1 µM | – | – | –
2 | ANWKGIAAMAKKLL-NH2 [Ala1] | 33 ± 8 µM | 18 ± 7 µM | ~1.5% | 230 ± 10 µM | 1.1±0.1 | 25±7 | ~4%
3 | CCC(=O)N[C@H](C(=O)N[C@@H](CC(N)=O)C(=O)N[C@@H](Cc1c[nH]c2ccccc12)C(=O)N[C@@H](CCCCN)C(=O)NCC(=O)N[C@H](C(=O)N[C@@H](C)C(=O)N[C@@H](C)C(=O)N[C@@H](CCSC)C(=O)N[C@@H](C)C(=O)N[C@@H](CCCCN)C(=O)N[C@@H](CCCCN)C(=O)N[C@@H](CC(C)C)C(=O)N[C@@H](CC(C)C)C(N)=O)[C@@H](C)CC)[C@@H](C)CC [PAMPX] (Propionyl-INWKGIAAMAKKLL-NH2) | 21 ± 4 µM (≈ 33.9 µg/mL) | 3.3 ± 0.8 µM (≈ 5.32 µg/mL) | 10% | 25 ± 1 µM | – | – | –
4 | CCCCCCCCC(N)C(=O)N[C@@H](CC(N)=O)C(=O)N[C@@H](Cc1c[nH]c2ccccc12)C(=O)N[C@@H](CCCCN)C(=O)NCC(=O)N[C@H](C(=O)N[C@@H](C)C(=O)N[C@@H](C)C(=O)N[C@@H](CCSC)C(=O)N[C@@H](C)C(=O)N[C@@H](CCCCN)C(=O)N[C@@H](CCCCN)C(=O)N[C@@H](CC(C)C)C(=O)N[C@@H](CC(C)C)C(N)=O)[C@@H](C)CC (stereo partly shown) [Adec1] (H-[ξGly(octyl)]NWKGIAAMAKKLL-NH2) | 3.3 ± 0.8 µM (≈ 5.32 µg/mL) | 1.7 ± 0.4 µM (≈ 2.74 µg/mL) | full haemolysis | 0.7 ± 0.1 µM | – | – | –
5 | CCCCCCCC(=O)N[C@H](C(=O)N[C@@H](CC(N)=O)C(=O)N[C@@H](Cc1c[nH]c2ccccc12)C(=O)N[C@@H](CCCCN)C(=O)NCC(=O)N[C@H](C(=O)N[C@@H](C)C(=O)N[C@@H](C)C(=O)N[C@@H](CCSC)C(=O)N[C@@H](C)C(=O)N[C@@H](CCCCN)C(=O)N[C@@H](CCCCN)C(=O)N[C@@H](CC(C)C)C(=O)N[C@@H](CC(C)C)C(N)=O)[C@@H](C)CC)[C@@H](C)CC [OAMPX] (Octanoyl-INWKGIAAMAKKLL-NH2) | 5 ± 1 µM (≈ 8.41 µg/mL) | 3.3 ± 0.8 µM (≈ 5.55 µg/mL) | full haemolysis | 1.1 ± 0.3 µM | – | – | –
6 | CCCCCCCCC(NC(=O)[C@H](CC(C)C)NC(=O)[C@H](CCCCN)NC(=O)[C@H](CCCCN)NC(=O)[C@H](C)NC(=O)[C@H](CCSC)NC(=O)[C@H](C)NC(=O)[C@H](C)NC(=O)[C@@H](NC(=O)CNC(=O)[C@H](CCCCN)NC(=O)[C@H](Cc1c[nH]c2ccccc12)NC(=O)[C@H](CC(N)=O)NC(=O)[C@@H](N)[C@@H](C)CC)[C@@H](C)CC)C(N)=O (stereo partly shown) [Adec14] (H-INWKGIAAMAKKL[ξGly(octyl)]-NH2) | 3.3 ± 0.8 µM (≈ 5.32 µg/mL) | 1.7 ± 0.4 µM (≈ 2.74 µg/mL) | full haemolysis | 0.8 ± 0.2 µM | – | – | –
7 | INWKGIALMAKKLL-NH2 [Leu8] | 7 ± 3 µM | 2.5 ± 1.3 µM | – | 14 ± 2 µM | – | – | –
8 | INWKGIAAMAKKLA-NH2 [Ala14] | 33 ± 8 µM | 21 ± 4 µM | ~1.5% | 220 ± 20 µM | 1.4±0.3 | 1.1±0.2 | ~4%

— article PMC3951324, “Side Chain Hydrophobicity Modulates Therapeutic Activity and Membrane Selectivity of Antimicrobial Peptide Mastoparan-X” (PLoS ONE, 2014)
